Assay results from patent publication US9744236B2, “Photolabile compounds” (The Trustees of Columbia University in the City of New York, priority 2009, dated 2017).

Legend:
[1] = Behaviour of modified rhodamine ligand at physiological pH; format: physicochemical
Excerpt: Given these properties, the chemical structure of rhodamine B was modified by adding a “sticky tail” in order to coordinate the fluorescent molecule to the metal center. In a first attempt to synthesize a modified rhodamine bearing a coordinating group, carboxylate was amidated with aminopropionitrile, using the Adamczyk procedure (Adamczyk, M. J. Bioorg. Med. Chem. Lett. 2000, 10: 1539-1541). The obtained compound is RhodB-APN, indicated in scheme 1B. […] Rhodamine 6G can be modified similarly to the rhodamine B, described above.

[2] = in aqueous solutions; cited from earlier work
[3] = Cyclic voltammetry, redox potential; format: physicochemical; conditions: acetonitrile, vs. NHE
Experimental: UV-vis spectra in water were obtained with an HP 8453 diode array spectrophotometer. RMN ^1H spectra were obtained using a Bruker 500 MHz equipment. CV measurements were performed with a PAR 273A potentiostat. Irradiation was effected by means of a pulsed Xe lamp, (pulse energy ˜0.5 J), with a low-pass filter at 480 nm. Irradiation using a 473 nm DPSS laser gave similar results.
(See, e.g., E. S. Dodsworth et al., 1986, Chem. Phys. Lett., 124:152-158). The photoactivity of these compounds has been explained in terms of a reaction pathway that involves the transition between the MLCT state to a lower-energy d-d state, which promotes ligand release. There is a direct correspondence between the energy of the MLCT transition and the quantum yield of the photoreaction. For [Ru(bpy)2(4AP)CH3CN]^2+, the photoreaction yield is about φPR=0.4. Since [Ru(bpy)2(4AP)2]Cl2 presents a red-shifted band, a lower photoreaction yield is expected. An estimate based on early experiments leads to an estimate of φPR≅0.02 at 473 nm.
Its aqueous solutions present a strong metal to ligand charge-transfer band (MLCT band) at 450 nm, characteristic of this family of Ru polypyridines.

[4] = system: living neocortical pyramidal neurons in mouse brain slices; experiment: Biocompatibility test on brain slices (two-photon microscopy, whole-cell patch recordings); format: cell-based; conditions: 350 μM, 1 hour of incubation
Experimental: Biocompatibility tests were performed to evaluate the potential toxicity of the complex. 350 μM [Ru(bpy)2(PMe3)Glu], a concentration used for two-photon uncaging experiments, was incubated with living neocortical pyramidal neurons in mouse brain slices, and carefully monitored the morphology and electrophysiological properties of the neurons using two-photon microscopy and whole-cell patch recordings.

[5] = Flash photolysis, uncaging time; format: physicochemical; conditions: basic aqueous solution, 532 nm, 10 ns pulse
Experimental: In order to estimate the uncaging time, a flash photolysis experiment was performed on a basic aqueous solution of [Ru(bpy)2(PMe3)Glu] using the second harmonic of a Nd-YAGlaser (532 nm, 10 ns pulse). The photocleavage occurs within the first 50 ns, being the fastest reported caged compound, to our knowledge. The fact that a tens of nanoseconds are required to complete the glutamate uncaging reaction is compatible with the observation that the excited state lifetime measured for a similar compound containing pyridine instead of glutamate is in the range of 10-100 ns.

[6] = 1H-NMR in D2O, isotopic exchange / inertness; format: physicochemical; conditions: 2 months in D2O at room temperature
Excerpt: The aliphatic region corresponding to the glutamate moiety is depicted in the upper trace of FIG. 18, where —NH2 protons appear at 4.50, 4.12, 4.00 and 3.57 ppm. […] This behavior differs from that of free glutamate which, under the same conditions, exchanges rapidly D+ for H+.

[7] = Photorelease of glutamate, UV-Vis during 450 nm LED irradiation; format: physicochemical
Experimental: As the photoreaction proceeds, the generation of the aquo complex was recorded to reach completion in about 4 minutes. The presence of two isosbestic points as well as a factor analysis performed on the spectra indicate that just two colored species are present in the solution, according to what is expected in a single photoaquation process. The spectrum of the photoproduct was found identical to that of the complex [Ru(bpy)2(PMe3)(H2O)]2^+, which can be synthesized by refluxing the chloro complex in water. At pH=11 a similar behavior was observed, although in this case the product is the hydroxo complex [Ru(bpy)2(PMe3)(OH)]^+.
The irradiance of the light source was calibrated using the known efficiency of the photolysis of [Ru(bpy)(Py)2]^2+. The amount of photoreleased glutamate was fitted using a two-parameter single-exponential function: y=a[1−exp(−bx)] and the quantum yield (φPC) was obtained as a•b, adopting a value of 0.13 at pH=7 and 0.10 at pH=11.

Retzius cells = experiment: Injection of caged fluorescent probe into living neurons; format: cell-based, Hirudo medicinalis; conditions: short-term (˜2 h) experiments
Experimental: Microscopy of leech (Hirudo medicinalis) ganglia was performed in a custom-made setup for photoelectrophisiology equipped with a micromanipulator used to impale the neuron body with the ˜1 μm tip diameter capillaries, and a CCD webcam as a registering device. An isolated leech ganglion from a segment between 7 and 14 was pinned down in a sylgard-coated, 35 mm Petri dish. Retzius cells were identified by their position, size, and firing behavior. Intracellular recordings were obtained with ˜20 MΩ sharp capillary microelectrodes, a Neuroprobe 1600 (A-M Systems) amplifier and a A/D signal acquisition board at 1 kHz sampling rate and custom-made software. For iontophoretical injection of the dye the microelectrode was filled with recording solution to which 1 mM caged fluorescent dye (chloride form) was added. Square, biphasic pulses of 1 nA, 2 Hz were applied for less that 5 min.
This example provides an activatable fluorescent probe with surprising sensitivity in the visible light region. It increases its intrinsic fluorescence up to 6-fold after blue light irradiation. […] The probe was used to image the laminar flow inside a thin spectrophotometric flow cell and to visualize the parabolic-shaped flow in a FIA capillary.

[8] = Fluorescence emission quantum yield before and after irradiation; format: physicochemical; conditions: after blue light (473 nm) irradiation
Excerpt: All reagents were purchased from Sigma-Aldrich and used as received. Ru(bpy)2Cl2 was synthesized according to the literature using water as solvent (Viala, C.; Coudret, C. Inorg. Chim. Acta 2006, 359: 984-989). UV-vis spectra were taken with a HP8453 diode-array spectrometer. NMR spectra were obtained using a 500 MHz Bruker AM-500. Fluorescence emission measurements were made with a PTI Quantamaster spectrofluorometer, corrected for the instruments response function. Rhodamine B was used as fluorescence standard of emission quantum yield (φ=0.31 in aqueous solutions). Quantum yield of the complex was obtained directly from the ratio of the spectral areas, which present the same shape.
FIG. 20 depicts the emission spectra of the complex during irradiation. The maximum and the shape of the initial emission spectrum is the same as that of the free ligand RhodB-MAPN but the emission quantum yield is much lower, around pt=0.04. Quantum yields are easily calculated integrating the spectral areas. After irradiation with a 473 nm laser, RhodB-MAPN is released and the solution increases its fluorescence up to 6 fold, to φt=0.24.

Question: With CCN(CC)c1ccc2c(-c3ccccc3C(=O)NCCC#N)c3ccc(=[N+](CC)CC)cc-3oc2c1 [RhodB-APN] as the molecule, how does the “stability of fluorescent form” value [1] read?
Answer: undergoes isomerization to the cyclic spirolactame form

Question: With CCN(CC)c1ccc2c(-c3ccccc3C(=O)O)c3ccc(=[N+](CC)CC)cc-3oc2c1.[Cl-] [Rhodamine B] as the molecule, how does the “emission quantum yield (fluorescence standard)” value [2] read?
Answer: 0.31

Question: Which “redox process, Ru(III)/Ru(II) couple of the original complex” value [3] does the source give for CP(C)C.F[P-](F)(F)(F)(F)F.F[P-](F)(F)(F)(F)F.NC(CCC(=O)O)C(=O)O.[Ru+2].c1ccc(-c2ccccn2)nc1.c1ccc(-c2ccccn2)nc1 [[Ru(bpy)2(PMe3)GlutH2](PF6)2] here?
Answer: 0.98 V

Question: And the “effects on morphology and electrophysiological properties of neurons” value [4]?
Answer: no detectable effects were observed

Question: And the photocleavage time [5]?
Answer: ≤ 50 ns

Question: And the “isotopic exchange of coordinated -NH2 (inertness)” value [6]?
Answer: no exchange is seen

Question: And the “quantum yield (φPC) of glutamate photorelease” value ([7]; pH=7)?
Answer: 0.13

Question: And the “time for photoreaction to reach completion” value ([7]; pH=7, 450±20 nm LED)?
Answer: about 4 minutes

Question: What about the “quantum yield (φPC) of glutamate photorelease” value ([7]; pH=11) of the same molecule?
Answer: 0.10

Question: Which results are given for CCN(CC)c1ccc2c(-c3ccccc3C(=O)N(C)CCC#N)c3ccc(=[N+](CC)CC)cc-3oc2c1.[Cl-].[Cl][Ru+].c1ccc(-c2ccccn2)nc1.c1ccc(-c2ccccn2)nc1 [[Ru(bpy)2(RhodB-MAPN)Cl]Cl]?
Answer: acute toxicity in injected living cells (Retzius cells): no sign of acute toxicity; increase of fluorescence [8]: up to 6 fold
